# Patent publication US20240059671A1, “TYROSINE KINASE 2 (TYK2) DEGRADATION COMPOUNDS AND METHODS OF USE” (CULLGEN (SHANGHAI), INC., priority 2020, published 2024)
# “Also recorded” adds a separate entry of the source.
# Target: TYK2 (Homo sapiens, UniProt P29597)
# Experiment: TYK2 protein degradation in NOMO-1 cells by immunoblotting
# Assay type: cell-based
# Parameters: endogenous in cells
# Settings: for TYK2 Degradation (NOMO-1, 10 nM) / TYK2 Degradation (NOMO-1, 100 nM): NOMO-1 cells
# How it was run: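 NOMO-1 cells in RPMI 1640 with 10% FBS were exposed to compound at 0.1–1000 nM for 16 hours. TYK2 levels in RIPA lysates were measured by SDS-PAGE immunoblot with chemiluminescent detection and band densitometry.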
# Chain of TYK2 (P29597 whole entry): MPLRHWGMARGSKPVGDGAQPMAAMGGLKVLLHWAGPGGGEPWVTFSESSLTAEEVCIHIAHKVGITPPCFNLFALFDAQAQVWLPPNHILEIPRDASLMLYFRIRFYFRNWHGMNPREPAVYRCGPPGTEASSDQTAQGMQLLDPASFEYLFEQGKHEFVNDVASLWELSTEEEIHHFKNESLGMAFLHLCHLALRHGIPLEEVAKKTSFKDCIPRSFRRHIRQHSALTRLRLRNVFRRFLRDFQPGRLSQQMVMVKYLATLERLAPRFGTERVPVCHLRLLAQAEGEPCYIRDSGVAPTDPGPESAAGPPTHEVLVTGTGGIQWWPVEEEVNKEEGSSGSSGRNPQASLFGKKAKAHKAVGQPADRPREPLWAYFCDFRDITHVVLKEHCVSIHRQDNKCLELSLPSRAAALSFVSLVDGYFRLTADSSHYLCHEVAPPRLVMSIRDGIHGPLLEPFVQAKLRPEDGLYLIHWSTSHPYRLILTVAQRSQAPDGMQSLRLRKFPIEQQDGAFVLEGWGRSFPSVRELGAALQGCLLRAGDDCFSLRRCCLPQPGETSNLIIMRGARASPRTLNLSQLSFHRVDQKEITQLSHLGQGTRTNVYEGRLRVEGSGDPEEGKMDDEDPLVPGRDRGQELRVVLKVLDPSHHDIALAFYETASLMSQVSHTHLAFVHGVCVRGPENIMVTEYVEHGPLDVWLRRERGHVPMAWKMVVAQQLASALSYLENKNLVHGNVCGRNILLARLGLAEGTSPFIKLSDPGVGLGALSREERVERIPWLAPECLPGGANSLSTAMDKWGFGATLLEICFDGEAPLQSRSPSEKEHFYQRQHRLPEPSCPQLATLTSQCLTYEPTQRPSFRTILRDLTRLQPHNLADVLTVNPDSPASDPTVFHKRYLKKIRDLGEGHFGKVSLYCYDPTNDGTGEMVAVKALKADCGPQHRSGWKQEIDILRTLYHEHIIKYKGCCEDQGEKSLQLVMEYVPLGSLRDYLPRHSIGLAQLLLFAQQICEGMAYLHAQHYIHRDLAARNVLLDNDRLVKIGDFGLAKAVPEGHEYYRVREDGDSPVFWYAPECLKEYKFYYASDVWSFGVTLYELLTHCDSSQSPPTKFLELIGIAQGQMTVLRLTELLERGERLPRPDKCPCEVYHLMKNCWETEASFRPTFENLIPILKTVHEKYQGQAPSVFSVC
Compound,"TYK2 Degradation (NOMO-1, 10 nM)","TYK2 Degradation (NOMO-1, 100 nM)","Reduction of TYK2 protein levels over a dose range (FIG. 2) (NOMO-1 cells, 0.1, 1, 10, 100 and 1000 nM, 16 hours)"
"CNC(=O)c1nnc(Nc2ccc(C(=O)NCCNc3ccc4c(c3)C(=O)N(C3CCC(=O)NC3=O)C4=O)cn2)cc1Nc1cccc(-c2ncn(C)n2)c1OC (stereo not shown) [CDD-176, 6-((5-((2-((2-(2,6-dioxopiperidin-3-yl)-1,3-dioxoisoindolin-5-yl)amino)ethyl)carbamoyl)pyridin-2-yl)amino)-4-((2-methoxy-3-(1-methyl-1H-1,2,4-triazol-3-yl)phenyl)amino)-N-methylpyridazine-3-carboxamide]",C (C: ≤20% TYK2 degradation),C (C: ≤20% TYK2 degradation),
"CNC(=O)c1nnc(Nc2ccc(C#CC3CN(C(=O)CCCCC(=O)N[C@H](C(=O)N4C[C@H](O)C[C@H]4C(=O)N[C@@H](C)c4ccc(-c5scnc5C)cc4)C(C)(C)C)C3)cn2)cc1Nc1cccc(-c2ncn(C)n2)c1OC [CPD-123, 6-((5-((1-(6-(((S)-1-((2S,4R)-4-Hydroxy-2-(((S)-1-(4-(4-methylthiazol-5-yl)phenyl)ethyl)carbamoyl)pyrrolidin-1-yl)-3,3-dimethyl-1-oxobutan-2-yl)amino)-6-oxohexanoyl)azetidin-3-yl)ethynyl)pyridin-2-yl)amino)-4-((2-methoxy-3-(1-methyl-1H-1,2,4-triazol-3-yl)phenyl)amino)-N-methylpyridazine-3-carboxamide]","B (B: <60% TYK2 degradation, and >20% TYK2 degradation)",A (A: ≥60% TYK2 degradation),
"CNC(=O)c1nnc(Nc2ccc(N3CCN(C(=O)CCCCCCCC(=O)N[C@H](C(=O)N4C[C@H](O)C[C@H]4C(=O)N[C@@H](C)c4ccc(-c5scnc5C)cc4)C(C)(C)C)CC3)cn2)cc1Nc1cccc(-c2ncn(C)n2)c1OC [CPD-115, 6-((5-(4-(9-(((S)-1-((2S,4R)-4-hydroxy-2-(((S)-1-(4-(4-methylthiazol-5-yl)phenyl)ethyl)carbamoyl)pyrrolidin-1-yl)-3,3-dimethyl-1-oxobutan-2-yl)amino)-9-oxononanoyl)piperazin-1-yl)pyridin-2-yl)amino)-4-((2-methoxy-3-(1-methyl-1H-1,2,4-triazol-3-yl)phenyl)amino)-N-methylpyridazine-3-carboxamide]",A (A: ≥60% TYK2 degradation),A (A: ≥60% TYK2 degradation),

# Further lines, with some results ahead:
"TYK2 Degradation (NOMO-1, 10 nM)","TYK2 Degradation (NOMO-1, 100 nM)",Compound,"Reduction of TYK2 protein levels over a dose range (FIG. 2) (NOMO-1 cells, 0.1, 1, 10, 100 and 1000 nM, 16 hours)"
A (A: ≥60% TYK2 degradation),C (C: ≤20% TYK2 degradation),"CNC(=O)c1nnc(Nc2ccc(C(=O)NCCCCCCCNc3cccc4c3C(=O)N(C3CCC(=O)NC3=O)C4=O)cn2)cc1Nc1cccc(-c2ncn(C)n2)c1OC (stereo not shown) [CPD-157, 6-((5-((7-((2-(2,6-dioxopiperidin-3-yl)-1,3-dioxoisoindolin-4-yl)amino)heptyl)carbamoyl)pyridin-2-yl)amino)-4-((2-methoxy-3-(1-methyl-1H-1,2,4-triazol-3-yl)phenyl)amino)-N-methylpyridazine-3-carboxamide]",concentration-dependently reduced the TYK2 proteins levels; also recorded: highly potent in reducing TYK2 protein levels
,C (C: ≤20% TYK2 degradation),"CNC(=O)c1nnc(Nc2ccc(C(=O)NCCCNc3cccc4c3C(=O)N(C3CCC(=O)NC3=O)C4=O)cn2)cc1Nc1cccc(-c2ncn(C)n2)c1OC (stereo not shown) [CPD-153, 6-((5-((3-((2-(2,6-Dioxopiperidin-3-yl)-1,3-dioxoisoindolin-4-yl)amino)propyl)carbamoyl)pyridin-2-yl)amino)-4-((2-methoxy-3-(1-methyl-1H-1,2,4-triazol-3-yl)phenyl)amino)-N-methylpyridazine-3-carboxamide]",
